Consider 13 compounds from patent US20250179028A1, “ACRYLAMIDE COMPOUNDS” (NRG THERAPEUTICS LTD, priority 2022, published 2025).

For data set [1], the system named is mPTP. The data set can be described thus: mPTP activity assay in isolated rat brain mitochondria. It counts as biochemical. The following applies: for mPTP Rat brain pIC50: isolated rat brain mitochondria. As for the experimental part:
mPTP activity was measured in brain mitochondria freshly isolated from female Sprague Dawley (250 to 300 gram) rats. Anaesthetised rats were perfused in-situ with ˜40 ml cold Dulbecco's Phosphate Buffered Saline (DPBS), then brains dissected and transferred into 30 ml Isolation Buffer (225 mM mannitol, 75 mM sucrose, 1 mM EGTA, adjusted to pH 7.4 with 1 M NaOH). The brain was minced using tweezers and a scalpel into ˜5 mm pieces then transferred into a 50 ml Potterton Dounce homogenization tube on ice containing 10 ml ice-cold isolation buffer (as above with addition of Complete Protease inhibitor; 1 tablet per 50 ml buffer).
Homogenisation was carried out using a […] pestle at 1800 rpm. The slurry was centrifuged at 2000 g for 10 min at 4° C., then the supernatant centrifuged at 12,000 g for 9 min. The pellet was resuspended with a dounce homogeniser in isolation buffer as above but with the addition of 0.02% digitonin, centrifuged at 12,000 g for 11 min and finally resuspended in 5 ml modified isolation buffer (as above but with EGTA reduced to 0.1 mM).
Test compounds were prepared in 384 well polypropylene assay plates as described above for the liver mitochondria assay. A stock mitochondria/Fluo5N assay solution was prepared in 5.6 ml assay buffer (120 mM mannitol, 40 mM MOPS, 5 mM KH2PO4, 60 mM KCl, 10 mM pyruvate, 2 mM malate, 2 mM MgCl2, 20 μM ADP, 1.26 μM oligomycin A, adjusted to pH 7.4) supplemented with Fluo5N pentapotassium salt (2 μM) and 1 ml mitochondria suspension, then transferred (15 μl) into the assay plate containing test compounds and incubated for 10 min at RT. Assay plates were then transferred to a FLIPR Tetra plate reader (Molecular Devices). Dye fluorescence was then measured every 3 sec for a total of 10 min. After 12 sec, a 2.5 μl bolus of Ca2+ (75 μM) was added from a source plate containing 675 μM CaCl2) in FLIPR assay buffer. IC50 values for test compounds were calculated using the fluorescence value collected at the 10 min timepoint with % inhibition calculated using the DMSO control and cyclosporin A values at […].

Data set [2] in a line: Hepatocyte clearance assay, rat. It counts as in vitro ADME. The following applies: cryopreserved primary rat hepatocytes, average value from two experiments, read-out: Rat heps Clint. As for the experimental part: (§1) In vitro clearance studies were performed in primary rat and human hepatocytes (BiolVT). Vials of cryopreserved rat or human hepatocytes were thawed in a 37° C. water bath for 2 min. Cells were transferred into thawing medium (Williams' Medium E containing 30% Percoll, 1×GlutaMAX-1, 15 mM HEPES, 5% fetal bovine serum (FBS), 4 μg/ml insulin, 1 μM dexamethasone), centrifuged at 100 g for 10 min then resuspended in culture medium (Leibovitz's L-15 Medium) at a concentration of 0.5×10^6 viable cells/mL (number of viable cells assessed using AO/PI staining). Hepatocytes (198 μL) were transferred into wells of a 96-well non-coated plate and placed in a 37° C. incubator for 10 min. Test compound solutions were prepared from 10 mM stocks in DMSO, diluted to 100 μM in 50% (v/v in water) acetonitrile. Test compound samples (2 μl) were added to each well of hepatocytes and incubated at 37° C. Samples (25 μl) were collected at t=0, 15, 30, […] and 120 min, mixed with 6 volumes (150 μl) of acetonitrile containing internal standard (100 nM alprazolam, 200 nM caffeine and 100 nM tolbutamide), vortexed for 5 min and centrifuged for 45 min at 3220 g. An aliquot of supernatant (100 μL) was diluted with 100 μL ultra-pure water, and the mixture was used for LC/MS/MS analysis. All incubations were performed in duplicate. Peak areas were determined from extracted ion chromatograms. The slope value, k, was determined by linear regression of the natural logarithm of the remaining percentage of the parent drug vs. incubation time curve. The in vitro half-life (in vitro t½) was determined from the slope value: in vitro t½=0.693/k. Conversion of the in vitro t½ (in min) into the in vitro intrinsic clearance (in vitro CLint, in μL/min/1×10^6 cells) was done using the following equation (mean of duplicate determinations):
(§2) [formula] • V=incubation volume (0.2 mL) • N=number of hepatocytes per well (0.1×10^6 cells).

The subject of data set [3] is mPTP. Put plainly: mPTP activity (Ca2+ retention) assay in isolated rat liver mitochondria. In kind it is biochemical. The following applies: for mPTP Rat liver pIC50: isolated rat liver mitochondria, average value from multiple experiments (n ≥ 2). Put shortly:
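Freshly isolated female Sprague Dawley rat liver mitochondria were energised with succinate and rotenone in pH 7.4 buffer with Fluo5N, then pre-incubated 10 min at RT with compound (30 μM to 1 nM final) before a 75 μM CaCl2 bolus. The IC50 used 10-min fluorescence, normalised to DMSO and 5 μM cyclosporin A.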

A short description of data set [4]: Hepatocyte clearance assay, human. It counts as in vitro ADME. The following applies: cryopreserved primary human hepatocytes, average value from two experiments, read-out: Human heps Clint. The procedure:
as §1, §2

Data set [5] is described as follows: PBS and FaSSIF solubility. In kind it is physicochemical. The conditions noted are these: kinetic from dmso stock. The gist of the method: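 Solubility was measured from 10 mM DMSO stocks diluted into FaSSIF or PBS pH 7.4, in duplicate, then shaken at 1100 rpm for 2 hr at 25 °C. Filtrates were quantified by LC-MS/MS against an internal standard and a known-concentration standard.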

Data set [6] addresses CYP2D6 (Homo sapiens (Human), UniProt P10635). Put plainly: Cytochrome P450 CYP2D6 inhibition in human liver microsomes. The following applies: probe dextromethorphan 2 µM (dextrorphan formation); 1 uM test compound, human liver microsomes; average value from two experiments; negative values = no effective inhibition. In kind it is in vitro ADME. Put shortly:
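Human liver microsomes (0.2 mg/mL) with 2 μM dextromethorphan in 100 mM PBS, test compound at 1 μM or 0.1-30 μM, 15 min preincubation then NADPH-started reaction for 20 min at 37° C, in duplicate. Dextrorphan formation by UPLC-MS/MS; IC50 from % decrease versus uninhibited control.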

The mark [7] stands for this setting: fasted state simulated intestinal fluid (FaSSIF), fassif, Fasted state simulated intestinal fluid, 2 hr at 25° C., read-out: Solubility FaSSIF.

Values after ≈ are worked out from the molar mass of the structure shown. Read-outs that look alike come from different tables or passages of the source.

CYP2D6, sequence (P10635 whole entry): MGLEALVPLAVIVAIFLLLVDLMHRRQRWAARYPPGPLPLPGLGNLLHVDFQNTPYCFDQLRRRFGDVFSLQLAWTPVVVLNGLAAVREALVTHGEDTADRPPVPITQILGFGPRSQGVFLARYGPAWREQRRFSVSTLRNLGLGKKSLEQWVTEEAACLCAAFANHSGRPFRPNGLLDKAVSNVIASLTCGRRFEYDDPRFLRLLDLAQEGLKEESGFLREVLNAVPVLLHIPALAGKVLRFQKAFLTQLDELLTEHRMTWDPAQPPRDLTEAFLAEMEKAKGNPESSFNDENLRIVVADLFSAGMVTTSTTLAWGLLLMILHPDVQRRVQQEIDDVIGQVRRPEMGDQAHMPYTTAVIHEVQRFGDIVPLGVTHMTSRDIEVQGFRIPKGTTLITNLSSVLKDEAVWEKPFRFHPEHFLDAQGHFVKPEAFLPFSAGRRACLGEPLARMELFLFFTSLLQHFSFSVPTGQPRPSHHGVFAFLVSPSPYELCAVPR

For the compound `Cc1c(F)cccc1NC(=O)/C=C/c1ccc2c(C#N)n[nH]c2c1` [Example 51, (E)-3-(3-cyano-1H-indazol-6-yl)-N-(3-fluoro-2-methylphenyl)acrylamide], in data set [1], the “activity in the rat brain mitochondria assay (in words)” value is on record as “highest activity” and the “mPTP Rat brain pIC50” value is given as 8.3. Further, the hepatocyte CLint at 1 µM in data set [2] stood at 48.1 µL/min/1e6 cells. In data set [3], the “activity in the rat liver mitochondria assay (in words)” value is “highest activity” and the “mPTP Rat liver pIC50” value was determined as 7.9. Also, in data set [4], the hepatocyte CLint at 1 µM worked out at 11 µL/min/1e6 cells.

`Cc1n[nH]c2cc(/C=C/C(=O)N[C@H]3c4ccccc4C[C@@H]3OCC3COC3)ccc12` [Example 66, (E)-3-(3-methyl-1H-indazol-6-yl)-N-((1S,2S)-2-(oxetan-3-ylmethoxy)-2,3-dihydro-1H-inden-1-yl)acrylamide]: in data set [1], the “mPTP Rat brain pIC50” value was found to be 7.3. Besides, the hepatocyte CLint at 1 µM was determined as 36.1 µL/min/1e6 cells in data set [2] and 25.4 µL/min/1e6 cells in data set [4]. Besides, the “mPTP Rat liver pIC50” value in data set [3] was 7.2.

Consider `Cc1n[nH]c2cc(/C=C/C(=O)N[C@H]3c4ccccc4C[C@@H]3OCC3CC3)ccc12` [Example 67, (E)-N-((1S,2S)-2-(cyclopropylmethoxy)-2,3-dihydro-1H-inden-1-yl)-3-(3-methyl-1H-indazol-6-yl)acrylamide], for which the “mPTP Rat brain pIC50” value in data set [1] was found to be 7.3. The hepatocyte CLint at 1 µM is 73.3 µL/min/1e6 cells in data set [2] and 42.1 µL/min/1e6 cells in data set [4]. Also, in data set [3], the “mPTP Rat liver pIC50” value amounted to 7.2.

Take `Cc1n[nH]c2cc(/C=C/C(=O)N[C@H]3c4ccccc4C[C@@H]3OCCF)ccc12` [Example 68, (E)-N-((1S,2S)-2-(2-fluoroethoxy)-2,3-dihydro-1H-inden-1-yl)-3-(3-methyl-1H-indazol-6-yl)acrylamide]: the “mPTP Rat brain pIC50” value in data set [1] is on record as 7.7. Also, the values for the hepatocyte CLint at 1 µM in data set [2] and in data set [4] were 34.9 µL/min/1e6 cells and 12 µL/min/1e6 cells, respectively. Besides, the “mPTP Rat liver pIC50” value in data set [3] was found to be 7.8. The solubility (as a rule, the concentration that dissolves in the medium under given conditions) at 2 h in data set [5] (setting [7]) was 61.7 µM (≈ 23.4 µg/mL).

For `CCO[C@H]1Cc2ccccc2[C@@H]1NC(=O)/C=C/c1ccc2c(C)n[nH]c2c1` [Example 69, (E)-N-((1S,2S)-2-ethoxy-2,3-dihydro-1H-inden-1-yl)-3-(3-methyl-1H-indazol-6-yl)acrylamide], the “mPTP Rat brain pIC50” value in data set [1] is listed as 7.6. Besides, the values for the hepatocyte CLint at 1 µM in data set [2] and in data set [4] were 73 µL/min/1e6 cells and 17.9 µL/min/1e6 cells, respectively. For the same compound, in data set [3], the “mPTP Rat liver pIC50” value is listed as 7.7. The solubility at 2 h in data set [5] (setting [7]) is 181 µM (≈ 65.3 µg/mL).

For `CO[C@H]1Cc2ccccc2[C@@H]1NC(=O)/C=C/c1ccc2c(C#N)n[nH]c2c1` [Example 74, (E)-3-(3-cyano-1H-indazol-6-yl)-N-((1S,2S)-2-methoxy-2,3-dihydro-1H-inden-1-yl)acrylamide], in data set [1], the “mPTP Rat brain pIC50” value is reported as 8.0. Besides, the “mPTP Rat liver pIC50” value in data set [3] stood at 8.0. Moreover, in data set [6], the inhibition – broadly, how much of the control response was suppressed – at 20 min, 1 µM worked out at 7.5%. In addition, in data set [5] (aqueous buffer, PBS pH 7.4, 2 hr at 25° C., read-out: Solubility PBS (pH 7.4)), the solubility at 2 h is 1.2 µM (≈ 0.43 µg/mL).

For the compound `COc1cc(C)c(NC(=O)/C=C/c2cc3[nH]nc(C)c3cc2F)c(C)n1` [Example 95, (2E)-3-(5-fluoro-3-methyl-1H-indazol-6-yl)-N-(6-methoxy-2,4-dimethylpyridin-3-yl)prop-2-enamide], in data set [1], the “mPTP Rat brain pIC50” value was 7.9. The values for the hepatocyte CLint at 1 µM in data set [2] and in data set [4] were 5 µL/min/1e6 cells and 3 µL/min/1e6 cells, respectively. In data set [3], the “mPTP Rat liver pIC50” value is on record as 7.6. Moreover, in data set [5] (setting [7]), the solubility at 2 h is 76 µM (≈ 26.9 µg/mL).

Turning to `COc1cc(C)c(NC(=O)/C=C/c2cc3[nH]nc(Cl)c3cc2F)c(C)n1` [Example 96, (2E)-3-(3-chloro-5-fluoro-1H-indazol-6-yl)-N-(6-methoxy-2,4-dimethylpyridin-3-yl)prop-2-enamide], the “mPTP Rat brain pIC50” value in data set [1] is given as 7.8. Also, the values for the hepatocyte CLint at 1 µM in data set [2] and in data set [4] were 13 µL/min/1e6 cells and 6 µL/min/1e6 cells, respectively. The “mPTP Rat liver pIC50” value in data set [3] came to 7.6. In addition, the solubility at 2 h in data set [5] (setting [7]) was 14 µM (≈ 5.25 µg/mL).

Turning to `COc1cc(C)c(NC(=O)/C=C/c2cc3[nH]nc(F)c3cc2F)c(C)n1` [Example 97, (2E)-3-(3,5-difluoro-1H-indazol-6-yl)-N-(6-methoxy-2,4-dimethylpyridin-3-yl)prop-2-enamide], the “mPTP Rat brain pIC50” value in data set [1] was found to be 7.5. For the same compound, in data set [3], the “mPTP Rat liver pIC50” value worked out at 7.5. In data set [5] (setting [7]), the solubility at 2 h was 35 µM (≈ 12.5 µg/mL).

For the compound `COc1cc(C)c(NC(=O)/C=C/c2cc3[nH]nc(C#N)c3cc2F)c(C)n1` [Example 98, (2E)-3-(3-cyano-5-fluoro-1H-indazol-6-yl)-N-(6-methoxy-2,4-dimethylpyridin-3-yl)prop-2-enamide], the “mPTP Rat brain pIC50” value in data set [1] is given as 7.0. In addition, the hepatocyte CLint at 1 µM was 7 µL/min/1e6 cells in data set [2] and 9 µL/min/1e6 cells in data set [4]. For the same compound, in data set [3], the “mPTP Rat liver pIC50” value is 6.9.

Consider `Cc1c(F)cncc1NC(=O)/C=C/c1ccc2c(C)n[nH]c2c1` [Example 110, (2E)-N-(5-fluoro-4-methylpyridin-3-yl)-3-(3-methyl-1H-indazol-6-yl)prop-2-enamide], for which the “mPTP Rat brain pIC50” value in data set [1] was found to be 6.7. Besides, the hepatocyte CLint at 1 µM in data set [2] amounted to 307 µL/min/1e6 cells; in data set [4], 45 µL/min/1e6 cells. The “mPTP Rat liver pIC50” value in data set [3] was determined as 7.1.

For `Cc1ncc(F)c(C)c1NC(=O)/C=C/c1ccc2c(C)n[nH]c2c1` [Example 113, (2E)-N-(5-fluoro-2,4-dimethylpyridin-3-yl)-3-(3-methyl-1H-indazol-6-yl)prop-2-enamide], the “mPTP Rat brain pIC50” value in data set [1] was found to be 7.4. Further, the hepatocyte CLint at 1 µM in data set [2] and in data set [4] was 3 µL/min/1e6 cells each time. Also, the “mPTP Rat liver pIC50” value in data set [3] amounted to 7.7. The solubility at 2 h in data set [5] (setting [7]) is 8 µM (≈ 2.59 µg/mL).

`COCc1c(F)cnc(C)c1NC(=O)/C=C/c1ccc2c(C)n[nH]c2c1` [Example 117, (2E)-N-[5-fluoro-4-(methoxymethyl)-2-methylpyridin-3-yl]-3-(3-methyl-1H-indazol-6-yl)prop-2-enamide]: in data set [1], the “mPTP Rat brain pIC50” value worked out at 5.9. Also, the “mPTP Rat liver pIC50” value in data set [3] came to 6.6. Also, the hepatocyte CLint at 1 µM in data set [4] stood at 3 µL/min/1e6 cells. For the same compound, the solubility at 2 h in data set [5] (setting [7]) is 86 µM (≈ 30.5 µg/mL).
